Experimental data taken from patent US9856232B1, “Dihydropyrimidinone derivatives” (KING SAUD UNIVERSITY, priority 2017, dated 2018).
Where two headings read alike, the source gives them in different places. Marks after values point to notes of the source that are not given here.

How the values were obtained:
[1] = system: malondialdehyde in stomach tissue, induced by 80% ethanol; experiment: Determination of malondialdehyde (MDA); assay type: in vivo, Albino Wistar rats; settings: dose 50, 80% ethanol-treated rats, mean ± SE
Experimental: (§1) Albino Wistar rats of either sex, approximately the same age, weighing 150 to 200 g and fed on a diet of standard chow were used in this study. They were randomly divided into experimental groups of six rats each. Compounds (N-1 to N-18) 12.5, 25, and 50 mg/kg were given orally in the anti-ulcer studies and intraperitoneally for gastric secretion evaluation. The rats were sacrificed, and the stomachs removed and opened along the greater curvature, After washing with saline, the gastric lesions were quantified by a person unaware of the treatments. The animal study protocol was approved by the Research and Ethics Committee of the Experimental Animal Care Society, College of Pharmacy, King Saud University, Riyadh, Saudi Arabia.
Determination of malondialdehyde (MDA): The animals were sacrificed 1 hour after ethanol administration. The stomachs were removed and each was homogenized in 0.15 mol/L KCl (at 4° C.) in a Potter-Elvehjem type C homogenizer to give a 10% w/v homogenate. Aliquots of homogenate 1 mL in volume were incubated at 37° C. for 3 hours in a metabolic shaker. Then 1 mL of 10% aqueous TCA was added and mixed. The mixture was then centrifuged at 800 g for 10 minutes. One milliliter of the supernatant was removed and mixed with 1 mL of 0.67% w/v thiobarbituric acid in water and placed in a boiling water bath for 10 minutes. The mixture was cooled and diluted with 1 mL distilled water. The absorbance of the solution was then read at 535 nm. The content of malondialdehyde (nmol/g wet tissue) (index of the magnitude of lipid peroxidation) was then calculated, by reference to a standard curve of malondialdehyde solution. Table 7 provides the effect of compounds on the levels of MDA, NP_SH, and total protein in stomach tissue induced by 80% ethanol (mean±SE).

[2] = system: Hypothermic restraint stress-induced intraluminal bleeding and gastric lesion; experiment: Hypothermic restraint stress-induced ulcers; assay type: in vivo, Albino Wistar rats; design: Gastric Lesion Ulcer Index: scale not given here; settings: 50 mg/kg; hypothermic restraint 3 h; mean ± SE
[3] = system: gastric secretion in pylorus-ligated Shay rats; experiment: Pylorus-ligated rats: gastric secretion, acidity and lesion index; assay type: in vivo, Albino Wistar rats; design: Ulcer Index, pylorus-ligated Shay rats: scale not given here; settings: 50 mg/kg, i.p.; 6 h after pylorus ligation; mean ± SE
Experimental: as §1
Pylorus-ligated rats: Rats were fasted for 36 hours with access to water ad libitum before pylorus ligation under ether anesthesia was carried out. Care was taken not to cause bleeding or to occlude blood vessels. Compounds (N-3, N-8, N-11, and N-15) were administered intraperitoneally immediately after pylorus ligation. The rats were sacrificed at 6 hours after pylorus ligation. The stomachs were removed, the contents were collected, volumes measured, centrifuged and analyzed for tritratable acidity against […], NaOH at pH 7.0. Table 5 provides the effect of compounds on gastric secretion, acidity, and gastric lesion index in pylorus-ligated Shay rats (mean±SE).

[4] = system: gastric wall mucus in stomach tissue, change induced by 80% ethanol; experiment: Determination of gastric wall mucus (GWM); assay type: in vivo, Albino Wistar rats; settings: 50 mg/kg, i.p; 80% ethanol-treated rats; mean ± SE
Experimental: as §1
Determination of gastric wall mucus (GWM): Gastric wall mucus was determined according to the modified procedure. The glandular segment of the stomach was separated from the rumen of the stomach, weighed, and transferred immediately to 10 mL of 0.1% w/v Alcian blue solution (in […] sucrose solution buffered with […] sodium acetate at pH 5. Tissue was stained for 2 hours in Alcian blue, and excess dye was removed by two successive rinses with 10 mL of […] sucrose, firstly after 15 minutes and then after 45 minutes. Dye complexed with the gastric wall mucus was extracted with 10 ml of […] magnesium chloride which was intermittently shaken for 1 minute at 30 minute intervals for 2 hours. Four milliliters of blue extract were then vigorously shaken with an equal volume of diethyl ether. The resulting emulsion was centrifuged at 4000 r/min for 10 minutes and the absorbance of the aqueous layer was recorded at 580 nm. The quantity of Alcian blue extracted per gram of wet glandular tissue was then calculated. Table 6 provides the effect of compounds on the change in gastric wall mucus in stomach tissue induced by 80% ethanol (mean±SE).

[5] = system: Indomethacin-induced gastric mucosal lesions; experiment: Gastric lesions induced by Indomethacin; assay type: in vivo, Albino Wistar rats; design: scale not given here; settings: 50 mg/kg, i.p; 30 min before Indomethacin 30 mg/kg; mean ± SE
From the text: as §1, with “Compounds (N-1 to N-18) 12.5, 25, and 50 mg/kg were given orally in the anti-ulcer studies and intraperitoneally for gastric secretion evaluation.” left out
Gastric lesions induced by Indomethacin: Indomethacin was suspended in 1.0% carboxymethylcellulose (CMC) in water (6 mg/mL) and administered orally to the 36 hour fasted rats at a dose of 30 mg/kg body weight. Control rats were treated similarly with an equivalent amount of vehicle. […] The animals were sacrificed 6 hours after treatment. The stomachs were excised, rinsed with normal saline and examined for ulceration. Table 3 provides the effect of compounds on Indomethacin-induced gastric mucosal lesions (mean±SE).

[6] = system: Gastric lesions induced by necrotizing agents (80% ethanol, 0.2 mol/L NaOH or 25% NaCl); experiment: Gastric lesions induced by necrotizing agents (cytoprotection); assay type: in vivo, Albino Wistar rats; settings: 50 mg/kg, i.p; 30 min before necrotizing agent; mean ± SE
[7] = system: gastric mucosal non-protein sulfhydryls, induced by 80% ethanol; experiment: Estimation of non-protein sulfhydryls (NP-SH); assay type: in vivo, Albino Wistar rats; settings: dose 50; stomach tissue, 80% ethanol-treated rats; mean ± SE
Experimental: as §1
Estimation of non-protein sulfhydryls (NP_SH): Gastric mucosal non-protein sulfhydryls were measured according to the method. The glandular part of the stomach was homogenized in ice-cold 0.02 mmol/L ethylenediaminetetraacetic acid (EDTA). Aliquots of 5 mL of the homogenates were mixed in 15 mL test tubes with 4 mL of distilled water and 1 mL of 50% trichloroacetic acid (TCA). The tubes were shaken intermittently for 10 minutes and centrifuged at 3000 r/min. Two milliliters of supernatant were mixed with 4 mL of 0.4 mol/L Tris buffer at pH 8.9. Then 0.1 ML of 5, 5′-dithio-bis (2-nitrobenzoic acid) (DTNB) was added and the sample was shaken. The absorbance was measured within 5 minutes of DTNB addition at 412 nm against a reagent blank.

[8] = system: Gastric lesions induced by 80% ethanol; experiment: Gastric lesions induced by ethanol (ulcer index by severity scores); assay type: in vivo, Albino Wistar rats; settings: Rattus norvegicus, po, read-out: Gastric lesions induced by 80% ethanol, % change; for inhibition in vivo at 25 mg/kg: compound 25 mg/kg
Experimental: as §1
Gastric lesions induced by ethanol: Albino rats of either sex weighing between (150-200 g) are divided into groups. The animals were fasted for 24 hours with free access to water. Animals were given test drugs or standard drug. One hour later 1 mL/200 gm of 80% ethanol is administered orally to each animal. The animals were anaesthetized 1 hour latter with anesthetic ether and stomach was incised along the greater curvature and ulceration was scored. The number of ulcers and the length of each ulcer were measured. Ulcer index was calculated using severity scores. The mucosal damage was examined by means of a magnifying glass. For each stomach the mucosal damage was assessed according to the following scoring system: 0.5 redness; 1.0 spot ulcers; 1.5 hemorrhagic streaks; 2.0 ulcers<3, but≦5; 3.0 ulcers>5. Table 1 provides the effect of compounds on gastric lesions induced by 80% ethanol (mean±SE).

[9] = system: total protein in stomach tissue, induced by 80% ethanol; experiment: Total protein in stomach tissue; assay type: in vivo, Albino Wistar rats; settings: dose 50, 80% ethanol-treated rats, mean ± SE

Row | SMILES | MDA [1] | Gastric Lesion Ulcer Index [2] | Intraluminal Bleeding Score [2] | Titratable Acidity [3] [mEg/L] | Ulcer Index, pylorus-ligated Shay rats [3] | Volume of Gastric Content [3] [mL] | Gastric Wall Mucus [4] | Ulcer Index, indomethacin-induced gastric mucosal lesions [5] | Ulcer Index, 0.2 mol/L NaOH [6] | Ulcer Index, 25% NaCl [6] | Ulcer Index, 80% EtOH [6] | NP-SH [7] | inhibition in vivo at 50 mg/kg ([8]; Ranitidine 50 mg/kg, vs 80% EtOH group of the row) [%] | Total Protein [9] | melting point [°C] | inhibition in vivo at 12.5 mg/kg ([8]; compound 12.5 mg/kg, vs 80% EtOH group) [%] | inhibition in vivo at 25 mg/kg ([8]; vs 80% EtOH group) [%] | inhibition in vivo at 50 mg/kg ([8]; compound 50 mg/kg, vs 80% EtOH group) [%]
1 | CNC(=C[N+](=O)[O-])NCCSCc1ccc(CN(C)C)o1 [Ranitidine, reference compound] | 1.65 ± 0.02***^b nmol/g | 9.66 ± 0.95 | 0.83 ± 0.30 | 58.88 ± 1.85 | 0.50 ± 0.22 | 4.06 ± 0.18 | 287.24 ± 10.70***^b μg/g | 8.50 ± 0.56 | 1.00 ± 0.36 | 1.16 ± 0.30 | 1.50 ± 0.22 | 4.24 ± 0.15**^b nmol/g | 73.3 | 104.59 ± 1.59***^b g/L | – | – | – | –
2 | COc1ccc(C2NC(=O)NC=C2C(=O)c2ccc(N3CCCCC3)cc2)c(OC)c1 (centres unmarked) [Compound N-18, 4-(2,4-Dimethoxyphenyl)-5-[4-(piperidin-1-yl)benzoyl]-3,4-dihydropyrimiden-2(1H)-one] | – | – | – | – | – | – | – | – | – | – | – | – | – | – | 135 to 137 | 6.4 | 16.1 | 22.5
3 | O=C1NC=C(C(=O)c2ccc(N3CCCCC3)cc2)C(c2ccc(O)cc2)N1 (centres unmarked) [Compound N-9, 4-(4-Hydroxyphenyl)-5-[4-(piperidin-1-yl)benzoyl]-3,4-dihydropyrimidin-2(1H)-one] | – | – | – | – | – | – | – | – | – | – | – | – | – | – | 210 to 212 | – | 2 | –
